Calls of active or inactive are those of the source. The rule behind the calls is not given here.
What was measured:
[1] = Toxicity in human Calu-6 cells xenografted CD1 nu/nu mouse assessed as body weight loss at 50 mg/kg, po administered once daily via gavage for 21 days measured twice per week during compound dosing in presence of gemcitabine; assay type: organism-based; conditions: in vivo, time 21 day
COLO 205 [2] = conditions: Mus musculus, CD1, dose 50.0 mg/kg, route po
MV4-11 [3] = assay: Cell cycle arrest in human MV4-11 cells assessed as accumulation of cells at S-phase at 0.32 uM measured after 24 hrs by propidium iodide staining based flow cytometry (reference value: 23.35%); assay type: functional
[4] = Toxicity in human COLO 205 cells xenografted CD1 nu/nu mouse assessed as decrease in lymphocyte count at 50 mg/kg, po administered daily via gavage for 56 days and measured on day 41 to 69 by hematological analysis; assay type: organism-based; conditions: in vivo, 1344 h, time 41-69 day
[5] = Plasma concentration at steady state in human COLO 205 cells xenografted po dosed CD1 nu/nu mouse; assay type: ADME, organism-based; conditions: in vivo
COLO 205 [6] = conditions: Mus musculus, CD1, dose 25-50 mg/kg, route po
MV4-11 [7] = assay: Cell cycle arrest in human MV4-11 cells assessed as accumulation of cells at G2/M-phase at 0.16 uM measured after 24 hrs by propidium iodide staining based flow cytometry (reference value: 15.23%); assay type: functional
MDA-MB-231 [8] = assay: Cell cycle arrest in human MDA-MB-231 cells assessed as accumulation of cells at G2/M-phase at 0.16 uM measured after 24 hrs by propidium iodide staining based flow cytometry (reference value: 11.46%); assay type: functional
[9] = Toxicity in human COLO 205 cells xenografted CD1 nu/nu mouse assessed as change in cecum histology at 50 mg/kg, po administered daily via gavage for 2 cycles of 3 weeks on/1 week rest and measured on day 41 to 69 by histopathological analysis; assay type: organism-based; conditions: in vivo, time 41-69 day
MV4-11 [10] = assay: Cell cycle arrest in human MV4-11 cells assessed as accumulation of cells at S-phase at 5 uM measured after 24 hrs by propidium iodide staining based flow cytometry (reference value: 23.35%); assay type: functional
COLO 205 [11] = conditions: Mus musculus, CD1, dose 50.0 mg/kg, route po, time lower 1.0 hrs, time upper […], TDE = time-dependent effect
MV4-11 [12] = assay: Cell cycle arrest in human MV4-11 cells assessed as accumulation of cells at G1-phase at 0.32 uM measured after 24 hrs by propidium iodide staining based flow cytometry (reference value: 61.42%); assay type: functional
[13] = biological target: T1, Dual specificity tyrosine-phosphorylation-regulated kinase 2 (Homo sapiens) (UniProt Q92630); conditions: Sf21, dose 200.0 nM
T1 sequence (whole entry): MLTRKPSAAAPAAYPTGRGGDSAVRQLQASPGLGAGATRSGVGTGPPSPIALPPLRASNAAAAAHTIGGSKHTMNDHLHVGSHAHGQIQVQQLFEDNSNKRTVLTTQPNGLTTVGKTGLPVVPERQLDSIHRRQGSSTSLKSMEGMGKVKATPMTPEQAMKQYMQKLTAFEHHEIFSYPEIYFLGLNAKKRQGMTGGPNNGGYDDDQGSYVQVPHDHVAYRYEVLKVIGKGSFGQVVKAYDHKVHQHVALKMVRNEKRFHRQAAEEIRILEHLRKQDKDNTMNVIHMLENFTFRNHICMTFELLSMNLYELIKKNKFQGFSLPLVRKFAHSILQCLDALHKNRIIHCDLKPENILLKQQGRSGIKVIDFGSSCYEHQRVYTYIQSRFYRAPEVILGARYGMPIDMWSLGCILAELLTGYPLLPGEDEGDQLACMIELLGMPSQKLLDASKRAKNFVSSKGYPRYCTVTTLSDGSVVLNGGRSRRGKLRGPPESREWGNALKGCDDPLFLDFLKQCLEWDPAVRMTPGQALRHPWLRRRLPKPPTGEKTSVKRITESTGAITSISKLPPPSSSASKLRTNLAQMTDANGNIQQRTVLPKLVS
Description: Inhibition of recombinant human full-length 6His-tagged DYRK2 expressed in baculovirus infected Sf21 insect cells at 200 nM using casein as substrate relative to control

COLO 205 [14] = conditions: Mus musculus, CD1, dose 100.0 mg/kg, route po, time 21.0 day
MV4-11 [15] = assay: Cell cycle arrest in human MV4-11 cells assessed as accumulation of cells at G1-phase at […] measured after 24 hrs by propidium iodide staining based flow cytometry (reference value: 61.42%); assay type: functional; conditions: dose 0.625 µM
MV4-11 [16] = assay: Cell cycle arrest in human MV4-11 cells assessed as accumulation of cells at S-phase at 1.25 uM measured after 24 hrs by propidium iodide staining based flow cytometry (reference value: 23.35%); assay type: functional
Mus musculus = organism: Mus musculus; conditions: CD1, dose 50.0 mg/kg, route po, time 17.0 day
[17] = Toxicity in human COLO 205 cells xenografted CD1 nu/nu mouse assessed as change in ileum histology at 50 mg/kg, po administered daily via gavage for 56 days and measured on day 41 to 69 by histopathological analysis; assay type: organism-based; conditions: in vivo, 1344 h, time 41-69 day
Calu-6 = conditions: Homo sapiens, dose 50.0 mg/kg, route po, time 21.0 day
MDA-MB-468 = assay: Cell cycle arrest in human MDA-MB-468 cells assessed as accumulation of cells at G2/M-phase at 0.16 uM measured after 24 hrs by propidium iodide staining based flow cytometry (reference value: 26.49%); assay type: functional
COLO 205 [18] = conditions: Mus musculus, CD1, dose 50.0 mg/kg, route po; remark: listed apart in the source
MV4-11 [19] = assay: Cell cycle arrest in human MV4-11 cells assessed as accumulation of cells at S-phase at […] measured after 24 hrs by propidium iodide staining based flow cytometry (reference value: 23.35%); assay type: functional; conditions: dose 0.625 µM
MV4-11 [20] = assay: Cell cycle arrest in human MV4-11 cells assessed as accumulation of cells at G2/M-phase at 0.32 uM measured after 24 hrs by propidium iodide staining based flow cytometry (reference value: 15.23%); assay type: functional
COLO 205 [21] = conditions: Mus musculus, CD1, dose 50.0 mg/kg, route po; remark: listed apart in the source
MDA-MB-231 [22] = assay: Cell cycle arrest in human MDA-MB-231 cells assessed as accumulation of cells at S-phase at 0.16 uM measured after 24 hrs by propidium iodide staining based flow cytometry (reference value: 38.27%); assay type: functional
MDA-MB-231 [23] = assay: Cell cycle arrest in human MDA-MB-231 cells assessed as accumulation of cells at G2/M-phase at 2.5 uM measured after 24 hrs by propidium iodide staining based flow cytometry (reference value: 11.46%); assay type: functional
COLO 205 [24] = assay: Antitumor activity against human COLO 205 cells xenografted in CD1 nu/nu mouse assessed as tumor growth inhibition at 25 to 100 mg/kg, po administered once daily via gavage for 21 days measured twice per week during compound dosing; assay type: functional, organism-based; conditions: dose 25-100 mg/kg, time 21.0 day
MV4-11 [25] = assay: Cell cycle arrest in human MV4-11 cells assessed as accumulation of cells at G1-phase at 5 uM measured after 24 hrs by propidium iodide staining based flow cytometry (reference value: 61.42%); assay type: functional

## CCN1CCN(Cc2ccc(Nc3ncc(F)c(-c4cc(F)c5nc(C)n(C(C)C)c5c4)n3)nc2)CC1 [ABEMACICLIB]
[1]
  Activity: Non-Toxic
COLO 205 [2]
  inhibition: Active
MV4-11 [3]
  Activity: 2.68%
[4]
  Activity: Non-Toxic
[5]
  Cpss: ~ 400 nM
COLO 205 [6]
  inhibition: Dose-Dependent Effect
MV4-11 [7]
  Activity: 2.73%
MDA-MB-231 [8]
  Activity: 4.02%
[9]
  Activity: Non-Toxic
MV4-11 [10]
  Activity: 3.9%
COLO 205 [11]
  inhibition: Tde
MV4-11 [12]
  Activity: 95.5%
[13]
  inhibition: > 90%
COLO 205 [14]
  inhibition: Active
MV4-11 [15]
  Activity: 94.63%
MV4-11 [16]
  Activity: 4.18%
Mus musculus
  inhibition: inactive
[17]
  Activity: Non-Toxic
Calu-6
  TGI: Active
MDA-MB-468
  Activity: 24.55%
COLO 205 [18]
  inhibition: inactive
MV4-11 [19]
  Activity: 3.6%
MV4-11 [20]
  Activity: 1.82%
COLO 205 [21]
  inhibition: inactive
MDA-MB-231 [22]
  Activity: 17.12%
MDA-MB-231 [23]
  Activity: 5.77%
COLO 205 [24]
  TGI: Active
MV4-11 [25]
  Activity: 95.56%
